One assay has as its target His-tag. More on the design: method as in PMID 16028931. Conditions: read-out: molecular binding affinity of Ni(II)-NTA for His-tag; cited from earlier work.
For a further assay, the system named is mNeonGreen-His6. As to the kind of experiment: MST: mNeonGreen-His6 negative control against SB203580 in HeLa cell lysate. It counts as binding.
Assay [1] has as its target pUL50 (Human cytomegalovirus) (UniProt P16791). The assay can be described thus: ITC. Conditions: cited from earlier work.

Entries after “also recorded” stand apart in the source; their conditions may differ.

Chain of UniProt P16791 (P16791 whole entry): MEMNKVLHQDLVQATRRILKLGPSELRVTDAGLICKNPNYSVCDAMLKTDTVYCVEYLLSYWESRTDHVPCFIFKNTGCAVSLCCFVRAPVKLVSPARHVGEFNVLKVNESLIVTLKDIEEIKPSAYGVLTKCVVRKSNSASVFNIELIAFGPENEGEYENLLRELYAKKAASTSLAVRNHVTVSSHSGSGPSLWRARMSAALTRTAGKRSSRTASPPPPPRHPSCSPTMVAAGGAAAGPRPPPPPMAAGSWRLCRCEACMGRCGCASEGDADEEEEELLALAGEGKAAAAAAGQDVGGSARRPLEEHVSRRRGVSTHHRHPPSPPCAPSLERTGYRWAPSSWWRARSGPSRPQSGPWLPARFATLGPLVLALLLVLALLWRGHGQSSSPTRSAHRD

Consider `O=C(O)CN(CC(=O)O)CC(=O)O` [NTA, nitrilotriacetic acid], for which, at His-tag, the Kd is around 10 µM.
Consider `C[S+]([O-])c1ccc(-c2nc(-c3ccncc3)c(-c3ccc(F)cc3)[nH]2)cc1` (stereo not drawn) [SB203580], for which the “binding to RED-tris-NTA labeled mNeonGreen-His6 (p38α-free negative control)” value in the assay with mNeonGreen-His6 is on record as “no binding could be detected; also recorded: did not yield a binding curve”.
pUL53 (from UniProt P16794): the Kd in assay [1] was 0.29 µM.
